Experimental data taken from US7432276B2, “ABCA1 elevating compounds” (CV Therapeutics, Inc., priority 2005, dated 2008).

System: ABCA1 mRNA
Test: ABCA1 mRNA induction in THP-1 cells, QuantiGene branched DNA assay
Assay type: cell-based
Details: 10 μM test compound, 18-20 hours; for fold induction at 10 µM: Homo sapiens, read-out: ABCA1 Induction Fold Increase over DMSO Vehicle
Outline: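 THP-1 cells, grown to subconfluence, treated with compounds at 10 and 3 μM in DMEM/BSA for 18–20 h. Lysates hybridized with ABCA1-specific probe 16–18 h at 53 °C; QuantiGene branched DNA luminescence gives fold increase over DMSO.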

COc1cccc2c1OC[C@@H]1[C@@H]2Nc2ccc(Br)cc2C1(C)C [Number 87, (12aS,6aS)-9-bromo-4-methoxy-7,7-dimethyl-7,12,12a,6a-tetrahydrochromano[4,3-b]quinoline]
ABCA1 Induction Fold Increase over DMSO Vehicle: 7.4 FOLD INCREASE

COc1cccc2c1C1Nc3ccc(C(C)(C)C)cc3C(C)(C)C1CO2 (centres unmarked) [Number 88, 9-(tert-butyl)-1-methoxy-7,7-dimethyl-7,12,12a,6a-tetrahydrochromano[4,3-b]quinoline]
ABCA1 Induction Fold Increase over DMSO Vehicle: 6.8 FOLD INCREASE

CNS(=O)(=O)Cc1ccc2c(c1)C(C)(C)C1COc3cccc(OC)c3C1N2 (centres unmarked) [Number 89, {[(1-methoxy-7,7-dimethyl(7,12,12a,6a-tetrahydrochromano[4,3-b]quinolin-9-yl))methyl]sulfonyl}methylamine]
ABCA1 Induction Fold Increase over DMSO Vehicle: 6.4 FOLD INCREASE

CCOP(=O)(Cc1ccc2c(c1)C(C)(C)C1COc3cccc(OC)c3C1N2)OCC (centres unmarked) [Number 90, diethoxy[(1-methoxy-7,7-dimethyl(7,12,12a,6a-tetrahydrochromano[4,3-b]quinolin-9-yl))methyl]phosphino-1-one]
ABCA1 Induction Fold Increase over DMSO Vehicle: 7.6 FOLD INCREASE

CCOP(=O)(Cc1ccc2c(c1)C(C)(C)C1COc3c(OC)cc(Cl)cc3C1N2)OCC (centres unmarked) [Number 91, [(2-chloro-4-methoxy-7,7-dimethyl(7,12,12a,6a-tetrahydrochromano[4,3-b]quinolin-9-yl))methyl]diethoxyphosphino-1-one]
ABCA1 Induction Fold Increase over DMSO Vehicle: 6.2 FOLD INCREASE

COc1cccc2c1[C@H]1Nc3ccc(-c4ccc(C#N)cc4)cc3C(C)(C)[C@@H]1CO2 [Number 92, 4-((12aS,6aS)-1-methoxy-7,7-dimethyl-7,12,12a,6a-tetrahydrochromano[4,3-b]quinolin-9-yl)benzenecarbonitrile]
ABCA1 Induction Fold Increase over DMSO Vehicle: 8.7 FOLD INCREASE

COc1cccc2c1[C@H]1Nc3ccc(-c4ccc(C(F)(F)F)cc4)cc3C(C)(C)[C@@H]1CO2 [Number 93, (12aS,6aS)-1-methoxy-7,7-dimethyl-9-[4-(trifluoromethyl)phenyl]-7,12,12a,6a-tetrahydrochromano[4,3-b]quinoline]
ABCA1 Induction Fold Increase over DMSO Vehicle: 6.8 FOLD INCREASE

COc1cccc2c1[C@H]1Nc3ccc(-c4ccccc4)cc3C(C)(C)[C@@H]1CO2 [Number 94, (12aS,6aS)-1-methoxy-7,7-dimethyl-9-phenyl-7,12,12a,6a-tetrahydrochromano[4,3-b]quinoline]
ABCA1 Induction Fold Increase over DMSO Vehicle: 5.8 FOLD INCREASE

C#Cc1ccc2c(c1)C(C)(C)[C@H]1COc3cccc(OC)c3[C@H]1N2 [Number 95, (12aS,6aR)-9-ethynyl-1-methoxy-7,7-dimethyl-7,12,12a,6a-tetrahydrochromano[4,3-b]quinoline]
ABCA1 Induction Fold Increase over DMSO Vehicle: 4.3 FOLD INCREASE

CCOC(=O)c1ccc(-c2ccc3c(c2)C(C)(C)[C@@H]2COc4cccc(OC)c4[C@H]2N3)cc1 [Number 96, ethyl 4-((12aS,6aS)-1-methoxy-7,7-dimethyl-7,12,12a,6a-tetrahydrochromano[4,3-b]quinolin-9-yl)benzoate]
ABCA1 Induction Fold Increase over DMSO Vehicle: 7.6 FOLD INCREASE

COc1cccc2c1[C@H]1Nc3ccc(-c4ccc(S(N)(=O)=O)cc4)cc3C(C)(C)[C@@H]1CO2 [Number 97, 4-((12aS,6aS)-1-methoxy-7,7-dimethyl-7,12,12a,6a-tetrahydrochromano[4,3-b]quinolin-9-yl)benzenesulfonamide]
ABCA1 Induction Fold Increase over DMSO Vehicle: 5.7 FOLD INCREASE

COc1cccc2c1[C@H]1Nc3ccc(-c4ccc(CO)cc4)cc3C(C)(C)[C@@H]1CO2 [Number 98, [4-((12aS,6aS)-1-methoxy-7,7-dimethyl-7,12,12a,6a-tetrahydrochromano[4,3-b]quinolin-9-yl)phenyl]methan-1-ol]
ABCA1 Induction Fold Increase over DMSO Vehicle: 5.2 FOLD INCREASE

COc1cccc2c1OC[C@H]1[C@@H]2Nc2ccc(-c3ccc(F)cc3)cc2C1(C)C [Number 99, (12aS,6aR)-9-(4-fluorophenyl)-4-methoxy-7,7-dimethyl-7,12,12a,6a-tetrahydrochromano[4,3-b]quinoline]
fold induction at 10 µM: 1.7

COc1ccccc1-c1ccc2c(c1)C(C)(C)C1COc3c(OC)cc(Cl)cc3C1N2 (centres unmarked) [Number 100, 1-(2-chloro-4-methoxy-7,7-dimethyl(7,12,12a,6a-tetrahydrochromano[4,3-b]quinolin-9-yl))-2-methoxybenzene]
ABCA1 Induction Fold Increase over DMSO Vehicle: 3.0 FOLD INCREASE

CC(=O)c1ccc2c(c1)C(C)(C)C1COc3c(F)cccc3C1N2 (centres unmarked) [Number 101, 1-(4-fluoro-7,7-dimethyl-7,12,12a,6a-tetrahydrochromano[4,3-b]quinolin-9-yl)ethan-1-one]
ABCA1 Induction Fold Increase over DMSO Vehicle: 4.0 FOLD INCREASE

CC(C)Oc1ccc2c(c1)C(C)(C)C1COc3c(F)cccc3C1N2 (centres unmarked) [Number 102, 4-fluoro-7,7-dimethyl-9-(methylethoxy)-7,12,12a,6a-tetrahydrochromano[4,3-b]quinoline]
ABCA1 Induction Fold Increase over DMSO Vehicle: 4.2 FOLD INCREASE

CC(C)Oc1ccc2c(c1)C(C)(C)C1COc3c(F)cccc3[C@H]1N2 (stereo partly drawn) [Number 103, (12aS)-4-fluoro-7,7-dimethyl-9-(methylethoxy)-7,12,12a,6a-tetrahydrochromano[4,3-b]quinoline]
ABCA1 Induction Fold Increase over DMSO Vehicle: 4.0 FOLD INCREASE

COc1ccccc1-c1ccc2c(c1)C(C)(C)C1=C(c3cccc(F)c3OC1)N2O [Number 104, 4-fluoro-9-(2-methoxyphenyl)-7,7-dimethyl-7,12-dihydro-6H-chromeno[4,3-b]quinolin-12-ol]
fold induction at 10 µM: 2.9

COc1cc(Cl)cc2c1OCC1C2Nc2ccc(NS(=O)(=O)c3ccc(C)cc3)cc2C1(C)C (centres unmarked) [Number 105, (2-chloro-4-methoxy-7,7-dimethyl(7,12,12a,6a-tetrahydrochromano[4,3-b]quinolin-9-yl))[(4-methylphenyl)sulfonyl]amine]
ABCA1 Induction Fold Increase over DMSO Vehicle: 3.6 FOLD INCREASE

COc1cccc2c1[C@H]1Nc3ccc(-c4ccc(C(=O)O)cc4)cc3C(C)(C)[C@H]1CO2 [Number 106, 4-((12aS,6aR)-1-methoxy-7,7-dimethyl-7,12,12a,6a-tetrahydrochromano[4,3-b]quinolin-9-yl)benzoic acid]
ABCA1 Induction Fold Increase over DMSO Vehicle: 4.8 FOLD INCREASE

COc1cccc2c1[C@H]1Nc3ccc(-c4ccc(C(N)=O)cc4)cc3C(C)(C)[C@H]1CO2 [Number 108, 4-((12aS,6aR)-1-methoxy-7,7-dimethyl-7,12,12a,6a-tetrahydrochromano[4,3-b]quinolin-9-yl)benzamide]
ABCA1 Induction Fold Increase over DMSO Vehicle: 4.7 FOLD INCREASE

COc1cccc2c1[C@H]1Nc3ccc(-c4ccc(F)cc4)cc3C(C)(C)[C@H]1CO2 [Number 109, (12aS,6aR)-9-(4-fluorophenyl)-1-methoxy-7,7-dimethyl-7,12,12a,6a-tetrahydrochromano[4,3-b]quinoline]
ABCA1 Induction Fold Increase over DMSO Vehicle: 4.1 FOLD INCREASE

COc1cccc2c1[C@H]1Nc3ccc(-c4csc(C)n4)cc3C(C)(C)[C@H]1CO2 [Number 110, (12aS,6aR)-1-methoxy-7,7-dimethyl-9-(2-methyl(1,3-thiazol-4-yl))-7,12,12a,6a-tetrahydrochromano[4,3-b]quinoline]
ABCA1 Induction Fold Increase over DMSO Vehicle: 6.0 FOLD INCREASE

COc1cccc2c1[C@H]1Nc3ccc(-c4cc[nH]n4)cc3C(C)(C)[C@H]1CO2 [Number 111, (12aS,6aR)-1-methoxy-7,7-dimethyl-9-pyrazol-3-yl-7,12,12a,6a-tetrahydrochromano[4,3-b]quinoline]
ABCA1 Induction Fold Increase over DMSO Vehicle: 4.7 FOLD INCREASE

COc1ccc(-c2ccc3c(c2)C(C)(C)[C@H]2COc4cccc(OC)c4[C@H]2N3)cc1 [Number 112, 1-((12aS,6aR)-1-methoxy-7,7-dimethyl(7,12,12a,6a-tetrahydrochromano[4,3-b]quinolin-9-yl))-4-methoxybenzene]
ABCA1 Induction Fold Increase over DMSO Vehicle: 1.7 FOLD INCREASE

COC(=O)c1cccc(-c2ccc3c(c2)C(C)(C)[C@H]2COc4cccc(OC)c4[C@H]2N3)c1 [Number 113, methyl 3-((12aS,6aR)-1-methoxy-7,7-dimethyl-7,12,12a,6a-tetrahydrochromano[4,3-b]quinolin-9-yl)benzoate]
ABCA1 Induction Fold Increase over DMSO Vehicle: 1.5 FOLD INCREASE

COc1cccc2c1[C@H]1Nc3ccc(-c4ccc(CCC(=O)O)cc4)cc3C(C)(C)[C@H]1CO2 [Number 114, 3-[4-((12aS,6aR)-1-methoxy-7,7-dimethyl-7,12,12a,6a-tetrahydrochromano[4,3-b]quinolin-9-yl)phenyl]propanoic acid]
ABCA1 Induction Fold Increase over DMSO Vehicle: 2.7 FOLD INCREASE

COc1cccc2c1[C@H]1Nc3ccc(-c4ccc(/C=C/C(=O)O)cc4)cc3C(C)(C)[C@H]1CO2 [Number 115, (2E)-3-[4-((12aS,6aR)-1-methoxy-7,7-dimethyl(7,12,12a,6a-tetrahydrochromano[4,3-b]quinolin-9-yl))phenyl]prop-2-enoic acid]
ABCA1 Induction Fold Increase over DMSO Vehicle: 2.2 FOLD INCREASE

CCOC(=O)c1cnn(-c2ccc3c(c2)C(C)(C)[C@H]2COc4cccc(OC)c4[C@H]2N3)c1C [Number 116, ethyl 1-((6aR,12aS)-6a,7,12,12a-tetrahydro-1-methoxy-7,7-dimethyl-6H-chromeno[4,3-b]quinolin-9-yl)-5-methyl-1H-pyrazole-4-carboxylate]
fold induction at 10 µM: 2.7

COc1cccc2c1[C@H]1Nc3ccc(C(=O)NCCO)cc3C(C)(C)[C@H]1CO2 [Number 117, (6aR,12aS)-6a,7,12,12a-tetrahydro-N-(2-hydroxyethyl)-1-methoxy-7,7-dimethyl-6H-chromeno[4,3-b]quinoline-9-carboxamide]
fold induction at 10 µM: 8.6

COc1cccc2c1[C@H]1Nc3ccc(-n4ncc(C(=O)O)c4C)cc3C(C)(C)[C@H]1CO2 [Number 118, 1-((6aR,12aS)-6a,7,12,12a-tetrahydro-1-methoxy-7,7-dimethyl-6H-chromeno[4,3-b]quinolin-9-yl)-5-methyl-1H-pyrazole-4-carboxylic acid]
fold induction at 10 µM: 4

COc1cccc2c1OC[C@H]1[C@@H]2Nc2ccc(C(=O)N3CCOCC3)cc2C1(C)C [Number 119, ((6aR,12aS)-6a,7,12,12a-tetrahydro-4-methoxy-7,7-dimethyl-6H-chromeno[4,3-b]quinolin-9-yl)(morpholino)methanone]
fold induction at 10 µM: 7.5
